Data from the supplement of paper PMC10307832.

Assays:
Experiment in all cases: relative viability (nuclei count vs DMSO), 5 days (fraction); higher = more cells survive
Lestaurtinib + Olaparib = compound: C[C@]12O[C@H](C[C@]1(O)CO)n1c3ccccc3c3c4c(c5c6ccccc6n2c5c31)CNC4=O [Lestaurtinib] + O=C(c1cc(Cc2n[nH]c(=O)c3ccccc23)ccc1F)N1CCN(C(=O)C2CC2)CC1 [Olaparib] (partner 8 µM)
Summary of the method: (§1)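 Medians of duplicate plates are given as relative viability. That measure is the nuclei count in treated wells divided by the count in vehicle wells. Counts were taken on 4× images of lung cancer cell lines in 1536-well plates, 5 days after pin-tool dosing the day after seeding with one drug alone or a fixed anchor-drug dose plus five library-drug doses (not always all listed) in √10 steps.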

[1] = compound: C1/C(=C\C2=CC=CS2)/C(=O)/C(=C/C3=CC=CS3)/C1 + Cc1nc(Nc2ncc(C(=O)Nc3c(C)cccc3Cl)s2)cc(N2CCN(CCO)CC2)n1 [Dasatinib] (partner 0.075 µM)
Summary of the method: as §1

[2] = compound: C1/C(=C\C2=CC=CS2)/C(=O)/C(=C/C3=CC=CS3)/C1 + NC(=O)Nc1cc(-c2cccc(F)c2)sc1C(=O)N[C@H]1CCCNC1 [AZD7762] (partner 0.2 µM)
Summary of the method: as §1

TPCA-1 + AZD7762 = compound: C1=CC(=CC=C1C2=CC(=C(S2)NC(=O)N)C(=O)N)F [TPCA-1] + NC(=O)Nc1cc(-c2cccc(F)c2)sc1C(=O)N[C@H]1CCCNC1 [AZD7762] (partner 0.2 µM)
Summary of the method: as §1

| Cell Line | relative viability (Lestaurtinib + Olaparib; first compound 0.005 µM) | relative viability (Lestaurtinib + Olaparib; first compound 0.01581 µM) | relative viability (Lestaurtinib + Olaparib; first compound 0.05 µM) | relative viability (Lestaurtinib + Olaparib; first compound 0.1581 µM) | relative viability (Lestaurtinib + Olaparib; first compound 0.5 µM) | relative viability ([1]; first compound 0.2 µM) | relative viability ([1]; first compound 0.6325 µM) | relative viability ([1]; first compound 2 µM) | relative viability ([1]; first compound 6.325 µM) | relative viability ([1]; first compound 20 µM) | relative viability ([2]; first compound 0.2 µM) | relative viability ([2]; first compound 0.6325 µM) | relative viability ([2]; first compound 2 µM) | relative viability ([2]; first compound 6.325 µM) | relative viability ([2]; first compound 20 µM) | relative viability (TPCA-1 + AZD7762; first compound 0.04 µM) | relative viability (TPCA-1 + AZD7762; first compound 0.1265 µM) | relative viability (TPCA-1 + AZD7762; first compound 0.4 µM) | relative viability (TPCA-1 + AZD7762; first compound 1.265 µM) | relative viability (TPCA-1 + AZD7762; first compound 4 µM) |
| --- | --- | --- | --- | --- | --- | --- | --- | --- | --- | --- | --- | --- | --- | --- | --- | --- | --- | --- | --- | --- |
| IA-LM | 0.835 | 0.944 | 0.991 | 0.819 | 0.774 |  |  |  |  |  |  |  |  |  |  |  |  |  |  |  |
| NCI-H322M | 0.823 | 0.622 |  | 0.765 | 0.521 | 0.256 | 0.244 | 0.249 | 0.237 | 0.247 | 0.491 | 0.58 | 0.484 | 0.518 | 0.521 | 0.608 | 0.555 | 0.538 | 0.579 | 0.519 |
| NCI-H1792 | 0.593 | 0.495 | 0.434 | 0.267 | 0.164 | 0.774 | 0.613 | 0.968 | 0.758 | 0.752 | 0.772 | 0.755 | 0.75 | 0.521 | 0.587 | 0.623 | 0.62 | 0.596 | 0.483 | 0.363 |
| LXF-289 | 1.09 | 1.08 | 0.753 | 0.852 | 0.172 | 0.241 | 0.178 | 0.251 | 0.154 | 0.203 | 1.07 | 1.13 | 1.16 | 1 | 1.07 | 1.1 | 1.09 | 1.1 | 1.07 | 0.774 |
| HCC-827 | 0.585 | 0.654 | 0.665 | 0.508 | 0.484 | 0.405 | 0.366 | 0.31 | 0.265 | 0.31 | 0.21 | 0.192 | 0.245 | 0.226 | 0.245 | 0.209 | 0.209 | 0.227 | 0.224 | 0.181 |
| EMC-BAC-2 | 0.531 | 0.466 | 0.493 | 0.356 | 0.29 | 0.359 | 0.372 | 0.366 | 0.306 | 0.431 | 1.19 | 1.1 | 1.09 | 0.91 | 1.12 | 1.15 | 1.09 | 1.27 | 1.03 | 0.72 |
| NCI-H520 | 0.383 | 0.421 | 0.315 | 0.319 | 0.254 | 0.218 | 0.212 | 0.165 | 0.241 | 0.213 |  |  |  |  |  |  |  |  |  |  |
| NCI-H1755 | 0.953 | 0.944 | 0.753 | 0.628 | 0.373 | 0.393 | 0.462 | 0.445 | 0.366 | 0.375 | 0.551 | 0.421 | 0.436 | 0.426 | 0.335 | 0.444 | 0.634 | 0.402 | 0.337 | 0.378 |
| NCI-H1993 | 0.76 | 1.16 | 1.14 | 1.04 | 0.463 | 0.545 | 0.48 | 0.616 | 0.457 | 0.649 | 0.783 | 0.747 | 0.958 | 0.62 | 0.499 | 0.972 | 0.748 | 0.745 | 0.747 | 0.598 |
| NCI-H23 | 0.327 | 0.295 | 0.291 | 0.301 | 0.203 | 0.742 | 0.832 | 1.07 | 0.804 | 0.692 | 0.25 | 0.342 | 0.294 | 0.244 | 0.175 | 0.338 | 0.261 | 0.21 | 0.235 | 0.223 |
| SK-MES-1 | 0.782 | 0.676 | 0.448 | 0.33 | 0.175 | 0.337 | 0.421 | 0.366 | 0.391 | 0.425 |  |  |  |  |  |  |  |  |  |  |
| NCI-H2023 | 0.519 | 0.493 | 0.578 | 0.364 | 0.18 | 0.597 | 0.581 | 0.673 | 0.513 | 0.502 |  |  |  |  |  |  |  |  |  |  |
| NCI-H1299 | 0.994 | 1.06 | 0.814 | 0.89 | 0.721 |  |  |  |  |  |  |  |  |  |  |  |  |  |  |  |
| NCI-H1563 |  |  |  |  |  | 0.452 | 0.462 | 0.504 | 0.453 | 0.465 |  |  |  |  |  |  |  |  |  |  |
| NCI-H661 | 0.813 | 0.754 | 0.684 | 0.735 | 0.419 | 0.998 | 0.801 | 0.811 | 0.833 | 0.85 |  |  |  |  |  |  |  |  |  |  |
| NCI-H1650 | 0.596 | 0.79 | 0.787 | 1.22 | 0.631 | 0.313 | 0.3 | 0.341 | 0.306 | 0.316 |  |  |  |  |  |  |  |  |  |  |
| Calu-6 | 0.572 |  | 0.457 | 0.388 | 0.252 |  |  |  |  |  |  |  |  |  |  |  |  |  |  |  |
| NCI-H1703 | 0.437 | 0.285 | 0.145 | 0.212 | 0.123 |  |  |  |  |  | 0.121 | 0.176 | 0.148 | 0.119 | 0.128 | 0.132 | 0.118 | 0.136 |  | 0.122 |
| EBC-1 | 0.711 | 0.794 | 0.695 | 0.639 | 0.45 |  |  |  |  |  |  |  |  |  |  |  |  |  |  |  |
| COR-L23 | 0.374 | 0.428 | 0.37 | 0.339 | 0.156 | 0.571 | 0.48 | 0.571 | 0.429 | 0.492 |  |  |  |  |  |  |  |  |  |  |
| HCC-44 | 0.994 | 0.984 | 0.96 | 1.16 | 0.675 |  |  |  |  |  | 1.03 | 1.03 | 0.857 | 0.84 | 1.03 | 1 | 1.01 | 0.982 | 1.08 | 1.02 |
| SW 1573 | 0.554 | 0.567 | 0.451 | 0.383 | 0.145 | 0.564 | 0.516 | 0.475 | 0.429 | 0.449 |  |  |  |  |  |  |  |  |  |  |
| NCI-H1648 |  | 0.979 |  | 1.08 | 0.478 |  |  |  |  |  | 0.778 | 0.622 | 0.571 | 0.601 | 0.511 | 0.807 | 0.682 | 0.684 | 0.806 | 0.668 |
| SK-LU-1 | 0.431 | 0.397 | 0.382 | 0.362 | 0.218 | 0.182 | 0.203 | 0.189 | 0.164 | 0.224 |  |  |  |  |  |  |  |  |  |  |
| A549 | 0.299 | 0.238 | 0.271 | 0.282 | 0.158 |  |  |  |  |  |  |  |  |  |  |  |  |  |  |  |
